# From patent US8846951B2 (AbbVie Inc., priority 2009, dated 2014)
# Read-outs that look alike come from different tables or passages of the source.
# Tests used:
# 5HT2B receptors = target: T1, 5HT2B receptors (Homo sapiens, UniProt P41595); test: Human 5-HT2B functional high throughput screening assay in CHO-K1 cells (calcium flux); format: cell-based; conditions: for EC50: CHO-K1 cells, calcium flux
# T1 construct: expressed in transfected cells; host or cells: CHO-K1 cells
# How it was run: (§1)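 CHO-K1 cells overexpressing human 5-HT2C or 5-HT2B were serum-starved overnight and loaded with Ca4 dye plus 2.5 mM probenecid for 60 min at RT. Calcium flux was read on FLIPR (ex 480/em 530 nm, 25° C) over 3 min after addition of compound, tested from 10 μM in 1:10 steps over 6 points with 0.2% DMSO. EC50 and Emax relative to serotonin came from a 4-parameter logistic fit.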
# 5HT2C receptors = target: T2, 5HT2C receptors (Homo sapiens, UniProt P28335); test: Human 5-HT2C functional high throughput screening assay in CHO-K1 cells (calcium flux); format: cell-based; set-up: expressed in transfected cells; host or cells: CHO-K1 cells; conditions: for EC50: CHO-K1 cells, calcium flux; for Emax: CHO-K1, 5-HT2C, maximum functional response as percentage relative to the effect of serotonin
# T2 sequence (P28335 33-458): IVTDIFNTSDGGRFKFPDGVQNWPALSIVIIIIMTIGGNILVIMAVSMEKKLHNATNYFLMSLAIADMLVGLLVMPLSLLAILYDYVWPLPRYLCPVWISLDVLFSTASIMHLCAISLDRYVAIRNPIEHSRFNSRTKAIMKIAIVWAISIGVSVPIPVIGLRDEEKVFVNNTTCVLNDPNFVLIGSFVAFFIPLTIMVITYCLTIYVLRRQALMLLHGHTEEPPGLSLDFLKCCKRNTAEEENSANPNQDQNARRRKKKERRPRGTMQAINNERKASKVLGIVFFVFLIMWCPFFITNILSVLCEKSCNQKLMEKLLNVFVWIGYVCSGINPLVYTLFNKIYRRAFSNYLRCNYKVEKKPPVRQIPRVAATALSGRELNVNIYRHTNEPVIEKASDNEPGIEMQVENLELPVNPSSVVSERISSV
# How it was run: as §1
# [1] = 5-HT2B agonist activity, read-out: EC50
# [2] = 5-HT2B, maximum functional response as percentage relative to the effect of serotonin
# [3] = 5-HT2C agonist activity, read-out: EC50
# T1 sequence (P41595 whole entry): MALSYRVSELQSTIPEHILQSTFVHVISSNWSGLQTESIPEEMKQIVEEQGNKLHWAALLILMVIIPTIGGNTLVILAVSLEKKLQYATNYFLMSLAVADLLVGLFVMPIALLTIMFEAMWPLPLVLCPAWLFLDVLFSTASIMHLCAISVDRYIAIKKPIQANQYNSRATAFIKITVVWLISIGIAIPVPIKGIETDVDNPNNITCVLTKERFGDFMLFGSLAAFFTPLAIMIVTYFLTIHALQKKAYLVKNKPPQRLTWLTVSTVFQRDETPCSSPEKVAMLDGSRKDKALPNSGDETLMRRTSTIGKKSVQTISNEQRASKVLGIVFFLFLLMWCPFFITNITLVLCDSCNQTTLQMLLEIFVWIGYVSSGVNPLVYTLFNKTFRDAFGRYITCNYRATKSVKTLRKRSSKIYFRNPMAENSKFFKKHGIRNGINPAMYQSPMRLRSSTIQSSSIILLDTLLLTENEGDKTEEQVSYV
EC50 (5HT2B receptors; [1]),EC50 (5HT2C receptors; [3]),Emax (5HT2C receptors; read-out: Emax),SMILES,Emax (5HT2B receptors; [2]),Emax (5HT2C receptors),"EC50 (5HT2B receptors; EC50, 5-HT2B agonist activity)","EC50 (5HT2C receptors; EC50, 5-HT2C agonist activity)",Emax (5HT2B receptors; CHO-K1)
> 10000 nM,700 nM,50%,"CN1C[C@H]2CNC(=O)c3cc(OCc4ccccc4F)ccc3[C@@H]2C1 (relative stereo) [Example 164, Trans-8-(2-fluorobenzyloxy)-2-methyl-1,2,3,3a,4,5-hexahydrobenzo[e]pyrrolo[3,4-c]azepin-6(10bH)-one]",inactive,–,–,–,–
–,–,–,"CCC(C)Oc1ccc2c(c1)C(=O)NC[C@@H]1CNC[C@@H]21 (relative stereo) [Example 165, Trans-8-sec-butoxy-1,2,3,3a,4,5-hexahydrobenzo[e]pyrrolo[3,4-c]azepin-6(10bH)-one]",inactive,> 120%,> 10000 nM,80 nM,–
–,–,–,"CC(C)COc1ccc2c(c1)C(=O)NC[C@@H]1CNC[C@@H]21 (relative stereo) [Example 166, Trans-8-isobutoxy-1,2,3,3a,4,5-hexahydrobenzo[e]pyrrolo[3,4-c]azepin-6(10bH)-one]",inactive,> 120%,> 10000 nM,–,–
–,–,–,"O=C1NC[C@@H]2CNC[C@H]2c2ccc(OCC3CCCCC3)cc21 (relative stereo) [Example 167, Trans-8-(cyclohexylmethoxy)-1,2,3,3a,4,5-hexahydrobenzo[e]pyrrolo[3,4-c]azepin-6(10bH)-one]",inactive,> 120%,> 10000 nM,5 nM,–
> 10000 nM,1 nM,> 120%,"O=C1NC[C@@H]2CNC[C@H]2c2ccc(OCc3c(F)cccc3F)cc21 (relative stereo) [Example 168, Trans-8-(2,6-difluorobenzyloxy)-1,2,3,3a,4,5-hexahydrobenzo[e]pyrrolo[3,4-c]azepin-6(10bH)-one]",inactive,–,–,–,–
–,–,–,"CC(C)CCOc1ccc2c(c1)C(=O)NC[C@@H]1CNC[C@@H]21 (relative stereo) [Example 169, Trans-8-(isopentyloxy)-1,2,3,3a,4,5-hexahydrobenzo[e]pyrrolo[3,4-c]azepin-6(10bH)-one]",inactive,> 120%,> 10000 nM,1 nM,–
–,–,–,"CCC(C)Oc1ccc2c(c1)C(=O)NC[C@@H]1CN(C)C[C@@H]21 (relative stereo) [Example 170, Trans-8-sec-butoxy-2-methyl-1,2,3,3a,4,5-hexahydrobenzo[e]pyrrolo[3,4-c]azepin-6(10bH)-one]",inactive,120%,> 10000 nM,70 nM,–
–,–,–,"CC(C)CCOc1ccc2c(c1)C(=O)NC[C@@H]1CN(C)C[C@@H]21 (relative stereo) [Example 171, Trans-8-(isopentyloxy)-2-methyl-1,2,3,3a,4,5-hexahydrobenzo[e]pyrrolo[3,4-c]azepin-6(10bH)-one]",inactive,> 120%,> 10000 nM,30 nM,–
–,–,–,"CC(C)COc1ccc2c(c1)C(=O)NC[C@@H]1CN(C)C[C@@H]21 (relative stereo) [Example 172, Trans-8-isobutoxy-2-methyl-1,2,3,3a,4,5-hexahydrobenzo[e]pyrrolo[3,4-c]azepin-6(10bH)-one]",inactive,> 120%,> 10000 nM,60 nM,–
> 10000 nM,20 nM,> 120%,"COc1ccccc1CCOc1ccc2c(c1)C(=O)NC[C@@H]1CNC[C@@H]21 (relative stereo) [Example 173, Trans-8-(2-methoxyphenethoxy)-1,2,3,3a,4,5-hexahydrobenzo[e]pyrrolo[3,4-c]azepin-6(10bH)-one]",inactive,–,–,–,–
> 10000 nM,30 nM,110%,"COc1cccc(CCOc2ccc3c(c2)C(=O)NC[C@@H]2CNC[C@@H]32)c1 (relative stereo) [Example 174, Trans-8-(3-methoxyphenethoxy)-1,2,3,3a,4,5-hexahydrobenzo[e]pyrrolo[3,4-c]azepin-6(10bH)-one]",inactive,–,–,–,–
> 10000 nM,6 nM,> 120%,"COc1ccc(CCOc2ccc3c(c2)C(=O)NC[C@@H]2CNC[C@@H]32)cc1 (relative stereo) [Example 175, Trans-8-(4-methoxyphenethoxy)-1,2,3,3a,4,5-hexahydrobenzo[e]pyrrolo[3,4-c]azepin-6(10bH)-one]",inactive,–,–,–,–
–,–,–,"O=C1NC[C@@H]2CNC[C@H]2c2ccc(-c3ccncc3)cc21 (relative stereo) [Example 177, Trans-8-(pyridin-4-yl)-1,2,3,3a,4,5-hexahydrobenzo[e]pyrrolo[3,4-c]azepin-6(10bH)-one]",inactive,> 120%,> 10000 nM,100 nM,–
–,–,–,"COc1ncc(-c2ccc3c(c2)C(=O)NC[C@@H]2CNC[C@@H]32)cn1 (relative stereo) [Example 178, Trans-8-(2-methoxypyrimidin-5-yl)-1,2,3,3a,4,5-hexahydrobenzo[e]pyrrolo[3,4-c]azepin-6(10bH)-one]",inactive,> 120%,> 10000 nM,70 nM,–
> 10000 nM,0.3 nM,> 120%,"O=C1NC[C@@H]2CNC[C@H]2c2ccc(-c3ccsc3)cc21 (relative stereo) [Example 184, Trans-8-(thiophen-3-yl)-1,2,3,3a,4,5-hexahydrobenzo[e]pyrrolo[3,4-c]azepin-6(10bH)-one]",inactive,–,–,–,–
> 10000 nM,1 nM,120%,"CN1C[C@H]2CNC(=O)c3cc(-c4cccc(C(C)(O)C(F)(F)F)c4)ccc3[C@@H]2C1 (relative stereo) [Example 185, Trans-2-methyl-8-(3-(1,1,1-trifluoro-2-hydroxypropan-2-yl)phenyl)-1,2,3,3a,4,5-hexahydrobenzo[e]pyrrolo[3,4-c]azepin-6(10bH)-one]",inactive,–,–,–,–
> 10000 nM,1 nM,> 120%,"CN1C[C@H]2CNC(=O)c3cc(-c4cccc(C(C)(C)O)c4)ccc3[C@@H]2C1 (relative stereo) [Example 186, Trans-8-(3-(2-hydroxypropan-2-yl)phenyl)-2-methyl-1,2,3,3a,4,5-hexahydrobenzo[e]pyrrolo[3,4-c]azepin-6(10bH)-one]",inactive,–,–,–,–
> 10000 nM,3 nM,> 120%,"CC(=O)c1cccc(-c2ccc3c(c2)C(=O)N(C)C[C@@H]2CNC[C@@H]32)c1 (relative stereo) [Example 187, Trans-8-(3-acetylphenyl)-5-methyl-1,2,3,3a,4,5-hexahydrobenzo[e]pyrrolo[3,4-c]azepin-6(10bH)-one]",inactive,–,–,–,–
–,–,–,"COc1ccc2c(c1)C(=O)N(C)C[C@@H]1CNC[C@@H]21 (relative stereo) [Example 188, Trans-8-methoxy-5-methyl-1,2,3,3a,4,5-hexahydrobenzo[e]pyrrolo[3,4-c]azepin-6(10bH)-one]",–,> 120%,1000 nM,60 nM,90%
> 10000 nM,0.9 nM,> 120%,"CN1C[C@@H]2CNC[C@H]2c2ccc(-c3cccc(CCO)c3)cc2C1=O (relative stereo) [Example 189, Trans-8-(3-(2-hydroxyethyl)phenyl)-5-methyl-1,2,3,3a,4,5-hexahydrobenzo[e]pyrrolo[3,4-c]azepin-6(10bH)-one]",inactive,–,–,–,–
–,–,–,"COc1ccc2c(c1)C(=O)N(C)C[C@@H]1CN(C)C[C@@H]21 (relative stereo) [Example 190, Trans-8-methoxy-2,5-dimethyl-1,2,3,3a,4,5-hexahydrobenzo[e]pyrrolo[3,4-c]azepin-6(10bH)-one]",inactive,> 120%,> 10000 nM,100 nM,–

SMILES,EC50 (5HT2B receptors; [1]),EC50 (5HT2C receptors; [3]),Emax (5HT2C receptors; read-out: Emax),Emax (5HT2B receptors; [2]),Emax (5HT2C receptors),"EC50 (5HT2B receptors; EC50, 5-HT2B agonist activity)","EC50 (5HT2C receptors; EC50, 5-HT2C agonist activity)",Emax (5HT2B receptors; CHO-K1)
"O=C1NC[C@@H]2CNC[C@H]2c2cccnc21 (relative stereo) [Example 157, Trans-1,2,3,3a,4,5-hexahydropyrido[3,2-e]pyrrolo[3,4-c]azepin-6(10bH)-one]",> 10000 nM,3000 nM,–,inactive,110%,–,–,–
"CN1C[C@H]2CNC(=O)c3cc(OCC4CCCCC4)ccc3[C@@H]2C1 (relative stereo) [Example 176, Trans-8-(cyclohexylmethoxy)-2-methyl-1,2,3,3a,4,5-hexahydrobenzo[e]pyrrolo[3,4-c]azepin-6(10bH)-one]",> 10000 nM,200 nM,–,inactive,> 120%,–,–,–
